Results on nine compounds are retold here after PubChem BioAssay (NCI).

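Step 1: Grow cells in 96-well plates. Step 2: Expose to compound for 48 hours at 5 concentrations. Step 3: Interpolate endpoints linearly; if unreached, use highest concentration. The concentration for 50% growth inhibition is given as GI50. At the TGI there is no net growth.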

What all share (experiment): NCI tumour cell line growth inhibition, 48 h
For experiment [1], the system named is M19-MEL melanoma.
In experiment [2] the test system is UACC-62 melanoma.
Experiment [3] has as its system DMS 273 small cell lung.
The test system of experiment [4] is CCRF-CEM leukemia.
Experiment [5] relates to HOP-92 NSCLC.
In experiment [6] the test system is SF-268 CNS.
For experiment [7], the system named is SNB-78 CNS.
The subject of experiment [8] is UO-31 renal.
The test system of experiment [9] is HT29 colon.
Experiment [10] concerns DMS 114 small cell lung.
Experiment [11] concerns MDA-MB-231 breast.
For experiment [12], the system named is SR leukemia.

In the case of `CCOC(=O)CN(CC)C(=O)NC12CC3CC(CC(C3)C1)C2`, the TGI in [1] was 472 µM; in [2], 312 µM; in experiment [3], above 705 µM; in experiment [4], 631 µM; in [5] it was 176 µM; in experiment [6], above 750 µM. The TGI is 709 µM in experiment [7], 389 µM in [8], 425 µM in experiment [9] and 363 µM in experiment [10].

On to `O=C1C=C2SC3C[C@@]24CC1(O)[N+]1=c2c4c(c(O)c4c2=C(C=N4)CC1)N3`, for which the TGI in [1] is 0.773 µM; in experiment [2] it was 1.51 µM; in experiment [3], 2.97 µM; in [4], 2.03 µM; in [5], 2.67 µM; in experiment [6], 2.19 µM. For the same compound, the TGI in experiment [7] came to 4.21 µM; in [8], 3.48 µM; in experiment [9], 1.01 µM; in [10], 0.504 µM.

Consider `Cc1c(CCCl)c(Cl)n2c(nc3ccccc32)c1C#N`, for which the TGI in experiment [1] is 9.76 µM; in experiment [2], 2.51 µM; in experiment [11], 17.9 µM; in experiment [3], 3.15 µM; in experiment [4], 3.36 µM; in [12], 0.649 µM. Also, the TGI in experiment [5] was 2.99 µM; in experiment [6], 11.5 µM; in [7], above 100 µM; in [8], 2.56 µM; in experiment [9] it was 4.35 µM; in experiment [10], 2.84 µM.

Regarding `CCCOC(=O)CCC(NC(=O)c1ccc(Nc2nc3ccccc3nc2-c2cccs2)cc1)C(=O)OCCC` (stereo unspecified), the TGI in experiment [1], in experiment [2], in [3], in experiment [4], in experiment [12] and in experiment [5] was above 100 µM throughout. The TGI in experiment [6], in experiment [7] and in [8] was above 100 µM throughout.

`O=C1N[C@@H]([C@H]2CC[C@H](Cl)CN2)C(=O)N[C@H]1[C@H]1CC[C@H](Cl)CN1`: the TGI in experiment [1] amounted to 23.5 µM; in experiment [2], 3.53 µM; in [11], 6.43 µM; in experiment [3], 7.35 µM; in experiment [4], 33.4 µM; in [12], 6.18 µM. The TGI turned out to be 7.95 µM in experiment [5]; 51.5 µM in experiment [6]; 87.8 µM in [7]; 6.42 µM in [8]; 32.1 µM in [9]; 10.6 µM in [10].

`CC(=O)OC1CCC2(C)C(CCC3C2CCC2(C)C(c4ccc(=O)oc4)C(OC(C)=O)CC32O)C1` (stereo unspecified): the TGI in experiment [2] amounted to 0.0506 µM; in experiment [3] it was 0.0194 µM; in [4] it was 0.0556 µM; in experiment [5], 0.0721 µM; in experiment [6], 0.0341 µM; in [7], 0.112 µM. The TGI was 0.0712 µM in [8] and 0.527 µM in experiment [9].

As to `O=S(c1ccc(O)cc1)c1ccc(O)cc1`, the TGI in experiment [1], in experiment [2], in [3], in [4], in [5] and in experiment [6] was above 100 µM in each case. For the same compound, the TGI in experiment [8], in [9] and in experiment [10] was above 100 µM in each case.

Consider `CC/C(CC(=O)CCC(=O)Nc1ccc(C)c(C)c1)=N\NC(=O)c1cc2ccccc2cc1O`, for which the TGI in experiment [1] was above 100 µM; in experiment [2], 43.9 µM; in [4] it was above 100 µM; in experiment [12], 69 µM; in experiment [5] it was 91.3 µM; in experiment [6] it was above 100 µM. The TGI in experiment [7], in [8], in experiment [9] and in experiment [10] was above 100 µM in each case.

For `O=C(c1ccccc1)c1nn(-c2cccc(Cl)c2)c2nc3nc(-c4ccccc4)cc(=O)n3nc12`, the GI50 in experiment [2], in experiment [11], in experiment [4], in experiment [12], in [5] and in experiment [6] was above 25 µM each time. In addition, the GI50 in [8] and in experiment [9] was above 25 µM throughout. For the same compound, the TGI in experiment [2], in experiment [11], in experiment [4], in experiment [12], in experiment [5] and in experiment [6] was above 25 µM each time. Also, the TGI in [8] and in [9] was above 25 µM in each case.
